Where two headings read alike, the source gives them in different places.
Molecular target: T1, cyclooxygenase-2 (COX-2) (Homo sapiens, UniProt P35354)
T1 sequence (P35354 18-604): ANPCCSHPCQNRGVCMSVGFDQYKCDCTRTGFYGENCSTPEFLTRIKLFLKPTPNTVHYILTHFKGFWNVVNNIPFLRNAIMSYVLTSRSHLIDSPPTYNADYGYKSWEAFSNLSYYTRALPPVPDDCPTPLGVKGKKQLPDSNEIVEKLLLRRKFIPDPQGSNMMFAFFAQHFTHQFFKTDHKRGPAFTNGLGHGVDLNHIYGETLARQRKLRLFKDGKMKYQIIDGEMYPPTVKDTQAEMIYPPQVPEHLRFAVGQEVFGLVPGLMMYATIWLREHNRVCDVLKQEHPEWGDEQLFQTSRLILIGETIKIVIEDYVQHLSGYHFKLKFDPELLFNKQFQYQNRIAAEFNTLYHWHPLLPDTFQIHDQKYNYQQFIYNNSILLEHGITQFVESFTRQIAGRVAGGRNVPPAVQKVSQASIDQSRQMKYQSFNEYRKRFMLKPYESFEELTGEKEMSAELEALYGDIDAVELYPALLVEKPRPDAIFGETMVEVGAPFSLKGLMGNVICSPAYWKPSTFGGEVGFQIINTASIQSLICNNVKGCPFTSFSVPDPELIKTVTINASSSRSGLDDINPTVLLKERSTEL
Method: To analyze the pharmacodynamic (PD) characteristics, approximately 1 mL of blood was sampled from the subjects in Study I, who had agreed to participate in the associated PD evaluation. The blood sampling was performed before administration (0 h) and at the following time points after administration: 0.083 h (5 min), 0.167 h (10 min), 0.33 h (20 min) and 0.5, 0.75, 1, 1.5, 2, 2.5, 3, 3.5, 4, 6, and 8 h. Therefore, for each subject, the blood sampling was performed 15 times in each period. While the PD analysis was performed on the same schedule as the PK analysis, only period 1 and 2 results were included in the analyses, and the post study visit was not performed.
The pharmacodynamic (PD) analysis was performed on the subjects in Study I, who had agreed to participate in the PD evaluation. For pharmacodynamic evaluation, the lipopolysaccharide (LPS) from E. coli O111:B4 (Sigma-Aldrich, Seoul, Republic of Korea) and the prostaglandin E2 (PGE2) enzyme-linked immunosorbent assay (ELISA) monoclonal kit (Cayman Chemical, MI, USA) were used. This study was conducted on healthy subjects, and LPS was added to sampled blood to induce inflammatory gene expression. The following procedures were applied for the PGE2 concentration analysis of subjects in Study I, who had agreed to participate in the pharmacodynamic evaluation.
Into 1.0 mL of sampled blood, 10 μL of lipopolysaccharide (LPS) was added. The mixture was centrifuged at […] and 4 °C for 10 min. By mixing the PGE2 ELISA standard and 1.0 mL of ELISA buffer, the standard reagents were produced at 1000, 500, 250, 125, 62.5, 31.3, 15.6, 7.8 pg/mL concentrations. Subsequently, to each well of the 96-well plate, 50 μL of the standard reagent, PGE2 acetylcholinesterase (AChE) tracer, and PGE2 monoclonal antibody were added. Each plate was then covered with a plastic film to be cultured at 4 °C for 18 h. Then, the wells were washed with the buffer solution 5 times, after which 200 μL of Ellman’s reagent was added to each well. The plate was covered with film once more to be placed on an orbital shaker for 60 min. The plate was read at a wavelength of 410 nm.
Pharmacodynamic (PD) was analyzed with data from the first and second periods. The plasma Prostaglandin E2 (PGE2) concentration in the first and second periods of Study I was measured using the enzyme-linked immunosorbent assay (ELISA) at the same time points as in the PK analysis: before investigational drug administration (0 h) and after drug administration at 0.083 h (5 min), 0.167 h (10 min), 0.33 h (20 min), and 0.5, 0.75, 1, 1.5, 2, 2.5, 3, 3.5, 4, 6, and 8 h. Therefore, for each subject, the measurements were taken 15 times in each period. While the PD analysis was performed on the same schedule as the PK analysis, only period 1 and 2 results were included in the analyses, and the post-study visit was not performed.
The PGE2 concentration and the cyclooxygenase-2 (COX-2) inhibitory effect derived from baseline (0 h time point before drug administration) values for each subject in Study I were visualized. The decreased level of calibrated PGE2 concentration performed in accordance with the concentration at baseline for each subject was tested as the extent of COX-2 inhibition, and the GMR and respective 90% CI of the COX-2 inhibition were applied in the PD analysis.
The pharmacodynamic (PD) data from the subjects in Study I, who had agreed to participate in the PD evaluation, were analyzed as follows to check for outliers. Grubbs’ test was performed when the normality of the data was satisfied; otherwise, a boxplot was drawn for log-transformed values, after which values outside the interquartile range (IQR) were checked for subsequent use in Grubb’s test. For significant outliers, the data excluding the values were analyzed once again.

[1] = Study I, all subjects N = 30, 25 mg pelubiprofen tromethamine vs. 30 mg pelubiprofen
[2] = Study I, without outliers N = 28, 25 mg pelubiprofen tromethamine vs. 30 mg pelubiprofen

SMILES: CC(C(=O)O)c1ccc(/C=C2\CCCCC2=O)cc1 (stereo not drawn) [Pelubiprofen Tromethamine, pelubiprofen tromethamine]
- Tmax,i (time of peak baseline-corrected COX-2 inhibition) (Study I periods 1 and 2, all subjects N = 30, single oral 25 mg pelubiprofen tromethamine, median (minimum–maximum)): 0.50 (0.00–3.50) h
- Tmax,I (time of peak baseline-corrected COX-2 inhibition) (Study I periods 1 and 2, without outliers (A03 and A08) N = 28, single oral 25 mg pelubiprofen tromethamine, median (minimum–maximum)): 0.50 (0.17–3.50) h
- Geometric Mean Ratio (90% CI) of AUIC [1]: 1.09 (0.94–1.27)
- Geometric Mean Ratio (90% CI) of Imax [1]: 0.98 (0.95–1.02)
- Geometric Mean Ratio (90% CI) of Tmax,i [1]: 1.01 (0.75–1.35)
- maximum COX-2 inhibitory effect compared to the reference (Study I, all subjects, 25 mg pelubiprofen tromethamine compared to 30 mg pelubiprofen): approximately 98%
- COX-2 inhibitory effect compared to the reference (Study I, excluding two outlier subjects (A03 and A08), 25 mg pelubiprofen tromethamine compared to 30 mg pelubiprofen): approximately 98%
- Geometric Mean Ratio (90% CI) of AUIC [2]: 1.03 (0.91–1.18)
- Geometric Mean Ratio (90% CI) of Imax [2]: 0.98 (0.95–1.01)
- Geometric Mean Ratio (90% CI) of Tmax,I [2]: 1.00 (0.73–1.36)
- Geometric Mean Ratio (90% CI) of Imax (Study I, without outliers N = 28, 25 mg pelubiprofen tromethamine vs. 30 mg pelubiprofen, listed as pelubiprofen tromethamine): approximately 0.98

SMILES: CC(C(=O)O)c1ccc(/C=C2\CCCCC2=O)cc1 (stereo not drawn) [Pelubiprofen, 2-[4-(oxocyclohexylidenemethyl)-phenyl] propionic acid]
- time after administration until which COX-2 inhibition was maintained (Study I, single oral 30 mg pelubiprofen): approximately 8 h
- Tmax,I (time of peak baseline-corrected COX-2 inhibition) (human, in vivo, po, 30 mg): 0.50 (0.33–3.50) h
- Tmax,PGE2 (human, in vivo, po, 30 mg): 0.08 (0.00–8.00) h
- Tmax,i (time of peak baseline-corrected COX-2 inhibition) (human, in vivo, po, 30 mg): 0.50 (0.33–3.50) h

Source: article PMC10146281, “Pharmacokinetic and Pharmacodynamic Characteristics of Pelubiprofen Tromethamine vs. Pelubiprofen in Healthy Subjects” (Pharmaceutics, 2023)
